Assay results published in patent US6063791A, “N-benzenesulfonyl-L-proline derivatives, method for preparing and therapeutic use” (Fournier Industrie et Sante, priority 1996, dated 2000).
Structures can show the parent of a compound that is named as a salt.

Biological target: T1, guinea-pig B2 receptor (Cavia porcellus, UniProt O70526)
T1 construct: Ileum segments are isolated from male guinea-pigs; tissue Iffa Credo, l'Arbresle, France (animals); host or cells: ileum membranes of male Dunkin-Hartley guinea-pigs
T1 sequence (O70526 1-372): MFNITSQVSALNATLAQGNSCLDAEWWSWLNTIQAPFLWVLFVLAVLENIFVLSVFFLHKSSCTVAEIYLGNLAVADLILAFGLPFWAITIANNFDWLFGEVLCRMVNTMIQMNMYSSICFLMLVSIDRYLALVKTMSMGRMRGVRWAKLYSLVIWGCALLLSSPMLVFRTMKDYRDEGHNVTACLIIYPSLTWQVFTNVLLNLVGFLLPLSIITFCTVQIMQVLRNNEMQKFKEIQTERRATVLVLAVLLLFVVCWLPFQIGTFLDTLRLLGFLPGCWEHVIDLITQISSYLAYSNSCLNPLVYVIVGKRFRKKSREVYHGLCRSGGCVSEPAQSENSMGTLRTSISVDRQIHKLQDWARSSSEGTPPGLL
Assay: Inhibition of [3H]-bradykinin binding to guinea-pig ileum membranes
Conditions: test compound at 10^-6 M, [3H]-bradykinin 120 pM, 90 min at 20° C., read-out: Activity (percentage inhibition of the binding of [3H]-bradykinin)
Description: The following pharmacological test is used: Ileum segments are isolated from male guinea-pigs [of the Dunkin-Hartley strain (Iffa Credo, l'Arbresle, France)] and ground in the following TES buffer: TES 25 mM, 1,10-phenanthroline 1 mM (pH 6.8), bacitracin 140 μg/ml, BSA 1 g/l. The membranes are then isolated by centrifugation (18,000 rpm; 20 min; 4° C.). The binding studies are carried out in this TES buffer using [^3 H]-bradykinin (120 pM) and 50 μg of membrane protein per test (final volume 500 μl) with an equilibrium time of 90 min at 20° C. The percentage inhibition of the binding of [^3 H]-bradykinin is then determined in the presence of one of the test compounds according to the invention at a concentration of 10^-6 M.
The results obtained from these tests (shown as "activity") are collated in Table I below with reference to the Examples given in the description. In this Table, Pos indicates the position of the amidine group on the aromatic (or heteroaromatic) ring relative to the group B; in the "Salt" column, Ch1 denotes that the compound is in the form of the hydrochloric acid salt and Ms denotes that it is in the form of the methanesulfonic acid salt.

Row | inhibition at 1 µM | SMILES
1 | 97% | CCN(CCCNC(=O)[C@@H]1CCCN1S(=O)(=O)c1ccc(Cl)c(COc2cccc3c(C)cc(C)nc23)c1Cl)C(=O)c1ccc(C(=N)N)cc1 [Example 14, 1-[[3-[(2,4-Dimethylquinolin-8-yl)oxymethyl]-2,4-dichlorophenyl]sulfonyl]-N-3-[[ethyl]-[[4-(aminoiminomethyl)phenyl]carbonyl]amino]propyl]-2(S)-pyrrolidine carboxamide dihydrochloride]
2 | 98.8% | Cc1cc(C)c2cccc(OCc3c(Cl)ccc(S(=O)(=O)N4CCC[C@H]4C(=O)NCCCNC(=O)COc4ccc(C(=N)N)cc4)c3Cl)c2n1 [Example 10, 1-[[3-[(2,4-Dimethylquinolin-8-yl)oxymethyl]-2,4-dichlorophenyl]sulfonyl]-N-[3-[[2-[4-(aminoiminomethyl)phenoxy]-1-oxoethyl]amino]propyl]-2(S)-pyrrolidinecarboxamide dihydrochloride]
3 | 100% | Cc1cc(C)c2cccc(OCc3c(Cl)ccc(S(=O)(=O)N4CCC[C@H]4C(=O)NCCCN(C)C(=O)c4ccc(C(=N)N)cc4)c3Cl)c2n1 [Example 16, 1-[[3-[(2,4-Dimethylquinolin-8-yl)oxymethyl]-2,4-dichlorophenyl]sulfonyl]-N-[3-[[methyl]-[[4(aminoiminomethyl)phenyl]carbonyl]amino]propyl]-2(S)-pyrrolidinecarboxamide dihydrochloride]
4 | 100% | Cc1cc(C)c2cccc(OCc3c(Cl)ccc(S(=O)(=O)N4CCC[C@H]4C(=O)NCCCCCNC(=O)c4ccc(C(=N)N)cc4)c3Cl)c2n1 [Example 21, 1-[[3-[(2,4-Dimethylquinolin-8-yl)oxymethyl]-2,4-dichlorophenyl]sulfonyl]-N-[5-[[4-(aminoiminomethyl)phenyl]carbonylamino]pentyl]-2(S)-pyrrolidinecarboxamide dihydrochloride]
5 | 92% | Cc1cc(C)c2cccc(OCc3c(Cl)ccc(S(=O)(=O)N4CCC[C@H]4C(=O)NCCNC(=O)c4ccc(C(=N)N)cc4)c3Cl)c2n1 [Example 2, 1-[[3-[(2,4-Dimethylquinolin-8-yl)oxymethyl]-2,4-dichlorophenyl]sulfonyl]-N-[2-[[4-(aminoiminomethyl)phenyl]carbonylamino]ethyl]-2(S)-pyrrolidine-carboxamide dihydrochloride]
6 | 97.5% | Cc1cc(C)c2cccc(OCc3c(Cl)ccc(S(=O)(=O)N4CCC[C@H]4C(=O)NCCCNC(=O)Cc4ccc(C(=N)N)cc4)c3Cl)c2n1 [Example 8, 1-[[3-[(2,4-Dimethylquinolin-8-yl)oxymethyl]-2,4-dichlorophenyl]sulfonyl]-N-[-[[2-[4(aminoiminomethyl)phenyl]-1-oxoethyl]amino]propyl]-2(S)-pyrrolidinecarboxamide dihydrochloride]
7 | 98% | Cc1cc(C)c2cccc(OCc3c(Cl)ccc(S(=O)(=O)N4CCC[C@H]4C(=O)NCCCCNC(=O)c4ccc(C(=N)N)cc4)c3Cl)c2n1 [Example 19, 1-[[3-[(2,4-Dimethylquinolin-8-yloxymethyl]-2,4-dichlorophenyl]sulfonyl]-N-[4-[[4-(aminoiminomethyl)phenyl]carbonylamino]butyl]-2(S)-pyrrolidinecarboxamidedihydrochloride]
8 | 95.5% | Cc1cc(C)c2cccc(OCc3c(Cl)ccc(S(=O)(=O)N4CCC[C@H]4C(=O)NCCNC(=O)COc4ccc(C(=N)N)cc4)c3Cl)c2n1 [Example 4, 1-[[3-[(2,4-Dimethylquinolin-8-yl)oxymethyl]-2,4-dichlorophenyl]sulfonyl]-N-[2-[[2-[4(aminoiminomethyl)phenoxy]-1-oxoethyl]amino]ethyl]-2(S)-pyrrolidinecarboxamide dihydrochloride]
9 | 99% | Cc1cc(C)c2cccc(OCc3c(Cl)ccc(S(=O)(=O)N4CCC[C@H]4C(=O)NCCCNC(=O)c4ccc(C(=N)N)cc4)c3Cl)c2n1 [Example 6, 1-[[3-[(2,4-Dimethylquinolin-8-yl)oxymethyl]-2,4-dichlorophenyl]sulfonyl]-N-[3-[[4-(aminoiminomethyl)phenyl]carbonylamino]propyl]-2(S)-pyrrolidine-carboxamide dihydrochloride]
